Data taken from patent US20260200964A1, “MONOSACCARIDES, PHARMACEUTICAL COMPOSITIONS, AND DIAGNOSTIC AND THERAPEUTIC APPLICATIONS” (Surio Therapeutics Co., LTD., priority 2022, published 2026).
Values belong to the molecule of their own block, whether it stands above or below them.

Experiments:
[1] = Compound stability in a biological matrix (human plasma); format: in vitro ADME; conditions: 10 μg/mL, 37° C., LC-MS/MS
Experimental: (§1) A compound was dissolved in DMSO as a 1 mg/mL stock solution. An ACN solution of the compound at 100 μg/mL was prepared from the stock solution, 10 μL of which was added to a biological matrix (90 μL) to the final concentration of 10 μg/mL for the compound. The mixtures of the compound in a biological matrix were incubated at 37° C. for 0, 0.5, 1, or 4 h. At each time point, ACN (900 μL) was added to a mixture. After the mixture was centrifuged at 15,000 rpm for 5 min, the supernatant was mixed with the same volume of H2O (1% TFA) and then analyzed by LC-MS/MS. The results are summarized in Table 3, wherein Cbz-AAM is (2R,3S,4R,5S)-6-((4-((S)-6-acetamido-2-(((benzyloxy)carbonyl)amino)hexan-amido)phenyl)(phenyl)methoxy)-2-(acetoxymethyl)-5-(2-azidoacetamido)tetrahydro-2H-pyran-3,4-diyl diacetate.

A549 cells = assay: Flow cytometry analysis of cell labeling (azido labeling efficiency); format: cell-based; conditions: Homo sapiens; A549 cells (lung); azido compound 25 μM, 48 h; mean fluorescence of live cells compared with PBS negative control
Experimental: Cells (2.0×10^6 cells/mL, 2 mL) were seeded in a 6-well culture plate and attached at 37° C. overnight. After washed thrice with PBS, the cells were incubated with an azido compound (25 μM) at 37° C. for 48 h. After washed thrice with PBS, the cells were incubated with DBCO-biotin (50 μM) in 500 μL serum free DMEM at 37° C. for 1 h. The cells were washed thrice with PBS and then incubated with streptavidin-Cy5 (5 μg/mL) in 500 μL serum free DMEM at 37° C. for 1 h. The cells were washed thrice with PBS, followed by addition of 300 μL 1×trypsin/EDTA for digestion. The lifted cells were transferred to a 1.5 mL EP tube, centrifuge at 1,000 rpm for 3 min, and washed with PBS once. Finally, 500 μL PBS containing 4% PFA was added to the cell pellet to fix the cells. The cell suspension was transferred to a flow tube and mixed with 10 μL of a PI working solution (50 μg/mL) at room temperature for 30 min before being subjected to flow cytometry.
Flow cytometry was used to characterize the labeling efficiency of a compound provided herein. After cells were labeled with an azido group, DBCO-biotin was added to specifically react with the azido group. Avidin-Cy5 was added bind to the cell surface biotin for a flow cytometry analysis. Dead cells were stained with PI and excluded from the analysis. Results were presented as the mean fluorescence of live cells, compared with PBS as a negative control and Ac4ManNAz (AAM) as a positive control, Ac4ManNAz (AAM, CAS: 361154-30-5).

[2] = Compound stability in a biological matrix (mouse plasma); format: in vitro ADME; conditions: 10 μg/mL, 37° C., LC-MS/MS
Experimental: as §1

SMILES: CC(=O)NCCCC[C@H](NC(=O)OCc1ccccc1)C(=O)Nc1ccc(C(OC2OC(COC(=O)C3CCN(C)CC3)C(OC(C)=O)C(OC(C)=O)C2NC(=O)CN=[N+]=[N-])c2ccnn2C)cc1 (stereo partly drawn) [Compound A10, 1-O-(1-(2-Methylpyrazol-3-yl)-1-(4-(6-acetamido-2(S)-(benzyloxycarbonyl-amino)hexanamido)phenyl)methyl)-2-(2-azidoacetylamino)-2-deoxy-3,4-di-O-acetyl-6-O-(1-methylpiperidin-4-yl)carbonyl-D-mannopyranoside]
Compound Remaining (%) Human 1 h [1]: 62%
Compound Remaining (%) Human 4 h [1]: 5%
activity at 25 µM (A549 cells): 166%
Compound Remaining (%) Mouse 1 h [2]: 81%
Compound Remaining (%) Mouse 4 h [2]: 21%

SMILES: CC(=O)NCCCC[C@H](NC(=O)OCc1ccccc1)C(=O)Nc1ccc(C(OC2OC(COC(C)=O)C(OC(C)=O)C(OC(C)=O)C2NC(=O)CN=[N+]=[N-])c2cncs2)cc1 (stereo partly drawn) [Compound A3, 1-O-(1-(thiazol-5-yl)-1-(4-(6-acetamido-2(S)-(benzyloxycarbonylamino)-hexanamido)phenyl)methyl)-2-(2-azidoacetylamino)-2-deoxy-3,4,6-tri-O-acetyl-D-mannopyranoside]
Compound Remaining (%) Mouse 1 h [2]: 72%
Compound Remaining (%) Mouse 4 h [2]: 19%

SMILES: CC(=O)NCCCC[C@H](NC(C)=O)C(=O)Nc1ccc(C(OC2OC(COC(C)=O)C(OC(C)=O)C(OC(C)=O)C2NC(=O)CN=[N+]=[N-])c2nccs2)cc1 (stereo partly drawn) [Compound A15, 1-O-(1-(Thiazol-2-yl)-1-(4-(2(S),6-diacetamidohexanamido)phenyl)methyl)-2-(2-azidoacetylamino)-2-deoxy-3,4,6-tri-O-acetyl-D-mannopyranoside]
Compound Remaining (%) Human 1 h [1]: 2%
Compound Remaining (%) Human 4 h [1]: <2%
activity at 25 µM (A549 cells): 318%
Compound Remaining (%) Mouse 1 h [2]: 2%
Compound Remaining (%) Mouse 4 h [2]: <2%

SMILES: CC(=O)NCCCC[C@H](NC(C)=O)C(=O)Nc1ccc(C(OC2OC(COC(=O)C3CCN(C)CC3)C(OC(C)=O)C(OC(C)=O)C2NC(=O)CN=[N+]=[N-])c2ccnn2C)cc1 (stereo partly drawn) [Compound A18, 1-O-(1-(2-Methylpyrazol-3-yl)-1-(4-(2(S),6-diacetamidohexanamido)phenyl)-methyl)-2-(2-azidoacetylamino)-2-deoxy-3,4-di-O-acetyl-6-O-(1-methylpiperidin-4-ylcarbonyl)-D-mannopyranoside]
Compound Remaining (%) Human 1 h [1]: 95%
Compound Remaining (%) Human 4 h [1]: 85%
activity at 25 µM (A549 cells): 104%
Compound Remaining (%) Mouse 1 h [2]: 100%
Compound Remaining (%) Mouse 4 h [2]: 93%

SMILES: CC(=O)NCCCC[C@H](NC(=O)OCc1ccccc1)C(=O)Nc1ccc(C(OC2OC(COC(=O)CN3CCCC3)C(OC(C)=O)C(OC(C)=O)C2NC(=O)CN=[N+]=[N-])c2ccnn2C)cc1 (stereo partly drawn) [Compound A11, 1-O-(1-(2-Methylpyrazol-3-yl)-1-(4-(6-acetamido-2(S)-(benzyloxycarbonyl-amino)hexanamido)phenyl)methyl)-2-(2-azidoacetylamino)-2-deoxy-3,4-di-O-acetyl-6-O-(pyrrolin-1-ylacetyl)-D-mannopyranoside]
Compound Remaining (%) Mouse 1 h [2]: 38%
Compound Remaining (%) Mouse 4 h [2]: 3%

SMILES: CC(=O)NCCCC[C@H](NC(=O)OCc1ccccc1)C(=O)Nc1ccc(C(OC2OC(COC(=O)C3CCOCC3)C(OC(C)=O)C(OC(C)=O)C2NC(=O)CN=[N+]=[N-])c2ccnn2C)cc1 (stereo partly drawn) [Compound A9, 1-O-(1-(2-methylpyrazol-3-yl)-1-(4-(6-acetamido-2(S)-(benzyloxycarbonyl-amino)hexanamido)phenyl)methyl)-2-(2-azidoacetylamino)-2-deoxy-3,4-di-O-acetyl-6-O-tetrahydropyran-4-ylcarbonyl-D-mannopyranoside]
Compound Remaining (%) Human 1 h [1]: 63%
Compound Remaining (%) Human 4 h [1]: 16%
activity at 25 µM (A549 cells): 197%
Compound Remaining (%) Mouse 1 h [2]: 84%
Compound Remaining (%) Mouse 4 h [2]: 27%

SMILES: CC(=O)NCCCC[C@H](NC(C)=O)C(=O)Nc1ccc(C(OC2OC(COC(C)=O)C(OC(C)=O)C(OC(C)=O)C2NC(=O)CN=[N+]=[N-])c2ccnn2C)cc1 (stereo partly drawn) [Compound A14, 1-O-(1-(2-Methylpyrazol-3-yl)-1-(4-(2(S),6-diacetamidohexanamido)phenyl)-methyl)-2-(2-azidoacetylamino)-2-deoxy-3,4,6-tri-O-acetyl-D-mannopyranoside]
Compound Remaining (%) Human 1 h [1]: 63%
Compound Remaining (%) Human 4 h [1]: 19%
activity at 25 µM (A549 cells): 620%
Compound Remaining (%) Mouse 1 h [2]: 89%
Compound Remaining (%) Mouse 4 h [2]: 40%

SMILES: CC(=O)NCCCC[C@H](NC(C)=O)C(=O)Nc1ccc(C(OC2OC(COC(C)=O)C(OC(C)=O)C(OC(C)=O)C2NC(=O)CN=[N+]=[N-])c2cncs2)cc1 (stereo partly drawn) [Compound A16, 1-O-(1-(Thiazol-5-yl)-1-(4-(2(S),6-diacetamidohexanamido)phenyl)methyl)-2-(2-azidoacetylamino)-2-deoxy-3,4,6-tri-O-acetyl-D-mannopyranoside]
Compound Remaining (%) Human 1 h [1]: 97%
Compound Remaining (%) Human 4 h [1]: 86%
activity at 25 µM (A549 cells): 136%
Compound Remaining (%) Mouse 1 h [2]: 93%
Compound Remaining (%) Mouse 4 h [2]: 73%

SMILES: CC(=O)NCCCC[C@H](NC(=O)OCc1ccccc1)C(=O)Nc1ccc(C(OC2O[C@H](COC(C)=O)[C@@H](OC(C)=O)[C@H](OC(C)=O)[C@@H]2NC(=O)CN=[N+]=[N-])c2ccccc2)cc1 (stereo partly drawn) [Cbz-AAM, (2R,3S,4R,5S)-6-((4-((S)-6-acetamido-2-(((benzyloxy)carbonyl)amino)hexan-amido)phenyl)(phenyl)methoxy)-2-(acetoxymethyl)-5-(2-azidoacetamido)tetrahydro-2H-pyran-3,4-diyl diacetate, reference compound]
Compound Remaining (%) Human 1 h [1]: 100%
Compound Remaining (%) Human 4 h [1]: 100%
Compound Remaining (%) Mouse 1 h [2]: 16%

Further lines, with some results ahead:

Compound Remaining (%) Human 1 h [1]: 94%
Compound Remaining (%) Human 4 h [1]: 70%
Compound Remaining (%) Mouse 1 h [2]: 91%
Compound Remaining (%) Mouse 4 h [2]: 72%
SMILES: CC(=O)NCCCC[C@H](NC(=O)OCc1ccccc1)C(=O)Nc1ccc(C(OC2OC(COC(C)=O)C(OC(C)=O)C(OC(C)=O)C2NC(=O)CN=[N+]=[N-])c2cnc[nH]2)cc1 (stereo partly drawn) [Compound A1, 1-O-(1-(imidazol-4-yl)-1-(4-(6-acetamido-2(S)-(benzyloxycarbonylamino)-hexanamido)phenyl)methyl)-2-(2-azidoacetylamino)-2-deoxy-3,4,6-tri-O-acetyl-D-mannopyranoside]
activity at 25 µM (A549 cells): 103%

Compound Remaining (%) Human 1 h [1]: 2%
Compound Remaining (%) Human 4 h [1]: 1%
Compound Remaining (%) Mouse 1 h [2]: 3%
Compound Remaining (%) Mouse 4 h [2]: 3%
SMILES: CC(=O)NCCCC[C@H](NC(=O)OCc1ccccc1)C(=O)Nc1ccc(C(OC2OC(COC(C)=O)C(OC(C)=O)C(OC(C)=O)C2NC(=O)CN=[N+]=[N-])c2cccs2)cc1 (stereo partly drawn) [Compound A4, 1-O-(1-(thien-2-yl)-1-(4-(6-acetamido-2(S)-(benzyloxycarbonylamino)-hexanamido)phenyl)methyl)-2-(2-azidoacetylamino)-2-deoxy-3,4,6-tri-O-acetyl-D-mannopyranoside]
activity at 25 µM (A549 cells): 83%

Compound Remaining (%) Human 1 h [1]: 88%
Compound Remaining (%) Human 4 h [1]: 65%
Compound Remaining (%) Mouse 1 h [2]: 4%
Compound Remaining (%) Mouse 4 h [2]: 0.6%
SMILES: CC(=O)NCCCC[C@H](NC(=O)OCc1ccccc1)C(=O)Nc1ccc(C(OC2OC(COC(C)=O)C(OC(C)=O)C(OC(C)=O)C2NC(=O)CN=[N+]=[N-])c2cccnc2)cc1 (stereo partly shown) [Compound A6]

Compound Remaining (%) Human 1 h [1]: 41%
Compound Remaining (%) Human 4 h [1]: 4%
Compound Remaining (%) Mouse 1 h [2]: 29%
Compound Remaining (%) Mouse 4 h [2]: 6%
SMILES: CC(=O)NCCCC[C@H](NC(=O)OCc1ccccc1)C(=O)Nc1ccc(C(OC2OC(COC(C)=O)C(OC(C)=O)C(OC(C)=O)C2NC(=O)CN=[N+]=[N-])c2ccncc2)cc1 (stereo partly drawn) [Compound A7, 1-O-(1-(Pyridin-4-yl)-1-(4-(6-acetamido-2(S)-(benzyloxycarbonylamino)hexan-amido)phenyl)methyl)-2-(2-azidoacetylamino)-2-deoxy-3,4,6-tri-O-acetyl-D-mannopyranoside]
